# Earlier results, collected in patent EP1688139A1 (Board of Regents of the University of Nebraska, priority 2000, dated 2002).
# Tested on: 3-nitropropionic acid
# Settings: rats, diet supplemented with creatine for 2 weeks, exposed to 3-nitropropionic acid
substance,measurement,value
N-aminoiminomethyl-N-methylglycine [Creatine],less lesion volume than nonsupplemented animals,83%
